Assay results taken from patent US20220218714A1, “METHOD OF TREATING CANCER” (Epizyme, Inc., priority 2013, published 2022).
Entries after “also recorded” stand apart in the source; their conditions may differ.

Tests used:
[1] = system: HS-SY-II cells; test: Adherent cell line 14-day long-term proliferation assay (CellTiter-Glo); format: cell-based, human
Description: (§1) 96-well plating for 7 day assay: For each adherent cell line, plated cells in a volume of 100 μL in 96-well plates, to be treated in triplicate, either in the evening (to treat with compound the following day) or in morning (to treat with compound in the evening), to allow cells to attach to plates before compound treatment.
(§2) 6-well plates to be split for 7-14 day assay: Plated 2mL of cells at the correct density in each well of the 6-well plate. Calculated the correct density from the 96-well plate growth curve by multiplying the 96-well density by 30. The factor 30 came from growth area of the 6-well plate divided by the growth area of the 96-well plate (9.5cm^2/0.32cm^2=29.7, rounded up to 30), which corresponds to 30-fold more surface area in a 6-well vs. a 96-well plate.
(§3) Day 0: Treated with compound or DMSO by removing media and adding back either […] (for 96-well plate) or 2 mL (for 6-well plate) media with the correct dilutions of compound/DMSO. Table 1 includes an example of 96-well plate map. Plates were incubated for 96 hours.
(§4) Read one 96-well plate with CellTiter-Glo®, for a Day 0 reading (media change not necessary for this plate).
(§5) Day 4: Read one 96-well plate with CellTiter-Glo® for a Day 4 reading (media change not necessary for this plate before reading). Replaced media with fresh media containing compound on Day 4 in 96-well plates and 6-well plates.
(§6) Day 7: read final 96-well plate with CellTiter-Glo®.
(§7) Counted individual wells of 6-well plates, and replated cells to initial plating density in 96-well plates, as described above.
(§8) Repeated steps for Days 0-7 for Days 7-14 of the proliferation assay.
(§9) Particularly, approximately 12 hours before compound treatment, HS-SY-II or SW982 cells were plated at the density of 24,000 cells/well and 7,500 cells/well, respectively in 6-well plates. On day 0, cells were treated with either DMSO or compound starting at 10 μmol/L and decreasing in fourfold dilutions. On day 7, the cells in 6-well plates were trypsinized, counted by TC10 automated cell counter (Bio-Rad, Richmond, Calif.) and replated at the density of 800 cells/well and 250 cells/well for HS-SY-II and SW982, respectively in 96-well plates in triplicate. The cells were allowed to adhere to the plate overnight, and treated with either DMSO or compound as on Day 0. On days 0, 7, 11, and 14, cell viability was determined by CellTiter-Glo® Luminescent Cell Viability Assay (Promega) with EnVision 2103 Multilabel Reader (Perkin-Elmer, Wellesley, Mass.). Compound/media was changed with new one on Day 4 and 11. The ratios of the measured values on Days 7, 11, and 14 to that of day 7 were used to plot proliferation from day 7 to day 14, and to calculate the IC50 values on Day 14. […]

[2] = system: SW982 cells; test: as above; format: cell-based, human
Description: as §1, §2, §3, §4, §5, §6, §7, §8, §9

[3] = PK values in HS-SY-II xenograft model (plasma concentration, LC/MS/MS); format: in vivo, mice; conditions: oral twice daily for 7 days; 5 minutes before and 3 hours after the last dose
Description: HS-SY-II cells were harvested during mid-log phase growth, and resuspended in Hank balanced salt solution with 50% Matrigel (BD Biosciences). Balb/C-nu mice (Charles River Laboratories Japan) received 1×10^7 cells (0.1 mL cell suspension) subcutaneously in the right flank. Mice carrying tumors of approximately 200 mm^3 (31 days after injection) were sorted into treatment groups with similar mean tumor volumes. Compound A or vehicle (0.5% MC+0.1% Tween-80 in water) was administered at the indicated doses on twice a day for 7 days by oral gavage. Each dose was delivered in a volume of 0.2 mL/20 g mouse (10 mL/kg), and adjusted for the last recorded weight of individual animals. Peripheral blood samples were collected at approximately 5 minutes before and 3 hours after the last dose from Compound A-treated mice. After obtaining plasma samples by centrifugation, the analysis for plasma concentrations of Compound A was conducted by the liquid chromatography-tandem mass spectrometry (LC/MS/MS) method. The UPLC system (Acquity, Waters) equipped with a mass spectrometer (Quattro premier, MICROMASS) was used for quantification of Compound A. The concentrations are plotted (n=5) in FIG. 7A. Each bar represents a mean of plasma concentration in each group.

[4] = system: HS-SY-II xenograft; test: Gene expression changes in vivo in HS-SY-II xenograft model (RT-PCR); design: species or system mice; conditions: 500 mg/kg oral twice daily for 7 days; 3 hours after last dose
Description: (§10) Tumor samples were collected at approximately 3 hours after the last dose from mice used in analysis for PK values and PD alterations. The tumor samples were stored using RNAlater (AM7020, Life technologies). Total RNA isolation and the reverse transcription were performed by RNeasy Mini Kit (74104, Qiagen) and High capacity cDNA Reverse Transcription kit (4368814, Life technologies) according to the manufacturer's instruction. The cDNA samples were used for real time-PCR as described above.
as §10, with “above. […] Additionally or alternatively, total RNAs were isolated from frozen tumor samples. The TruSeq' RNA Sample Prep Kit (Illumina) was used to build cDNA library for paired-end sequencing on the Illumina HiSeq (details described in Illumina TruSeq RNA Sample Preparation Guide). […] Paired-end reads from ˜50M clusters per sample were generated using TruSeq SBS kit on the Illumina HiSeq.” for “above.”

[5] = system: HS-SY-II cells; test: Gene expression changes in vitro (RT-PCR, normalized to GAPDH); format: cell-based, human; conditions: HS-SY-II in vitro culture
Description: ATF3, EGR1, CDKN2A and GAPDH expression were analyzed by using the TaqMan Gene Expression Assays (Life technologies, 4331182) and the TaqMan Probes (Hs00231069_ml, Hs00152928_ml, Hs00233365_ml, and Hs99999905_ml, respectively).

[6] = system: SW982 cells; conditions: SW982 in vitro culture

plasma concentrations [3]: Dose dependent exposure
Compound: CCN(c1cc(-c2ccc(CN3CCOCC3)cc2)cc(C(=O)NCc2c(C)cc(C)[nH]c2=O)c1C)C1CCOCC1 [Compound A]
sensitivity (cell proliferation / viability) [1]: high sensitivity; also recorded: highly sensitive | sensitivity (cell proliferation / viability) [2]: did not; also recorded: not sensitive | CDKN2A expression in tumor [4]: significantly upregulated | ATF3 and EGR1 expression [5]: upregulated | CDKN2A expression [5]: Dose- and time-dependent CDKN2A upregulation | ATF3 and EGR1 expression [6]: not in SW982
